Measured values from US20080262228A1, “Metabolites of 5-fluoro-8- quinoline and methods of preparation and uses thereof” (Wyeth, priority 2006, published 2008).
Where two headings read alike, the source gives them in different places.

Assay: In vivo metabolism of [14C]COMPOUND I in Sprague-Dawley rats, single oral 5 mg/kg dose
Set-up: species or system rat
Conditions: for Chromatographic Distribution of Radioactivity in Pooled Plasma Samples: 5 mg/kg oral [14C]COMPOUND I; for percent of total brain radioactivity: pooled brain
Experimental: Dose preparation, animal dosing, and specimen collection were performed at Wyeth Research, Collegeville, Pa. The vehicle contained 2% (w/v) polysorbate 80, NF and 0.5% (w/v) methylcellulose (4000 cps) in water. [^14C]COMPOUND I trisuccinate salt (36.6 mg) and non-labeled COMPOUND I trisuccinate salt (26.7 mg) were dissolved in 1 mL of ethanol and suspended in 35 mL of the vehicle with stirring. The target [^14C]COMPOUND I concentration was approximately 1 mg/mL as free base and 70 μCi/mL with a target specific activity of 70 μCi/mg. Three pre- and post-dose aliquots (100 μL) were taken for the determination of radiochemical purity, drug and radioactivity concentrations and specific activity (see below).
Male rats weighing from 323 to 354 g and female rats weighing from 270 to 317 g at the time of dosing were purchased from Charles River Laboratories (Wilmington, Mass.). Non-fasted rats were given a single 5 mg/kg (˜350 μCi/kg) dose of [^14C]COMPOUND I at a volume of 5.0 mL/kg via intragastric gavage. Three rats were dosed for each time point. Animals were provided Purina rat chow and water ad libitum, and were kept individually in metabolism cages.
Blood samples were collected at 1, 3, 6 and 24 hr from male rats and at 1 and 3 hr from female rats after dose administration by cardiac puncture into tubes containing EDTA as the anticoagulant and placing them on ice. Triplicate aliquots (50 μL) of whole blood were removed and plasma was immediately obtained from the remaining blood by centrifugation at 4° C. Whole brain samples were collected after saline perfusion at 1, 3, 6 and 24 hr post-dose from male rats and at 1 and 3 hr post-dose from female rats. Urine samples were collected on dry ice from male rats at intervals of 0-6 and 6-24 hr post-dose. Feces were collected from male rats at 0-24 hr post-dose at room temperature. The biological specimens and aliquots of the dose suspension were stored at approximately −70° C. until analysis.
Triplicate aliquots of diluted dose (20 μL), dose fractions (10 μL), and plasma (50 μL) and urine (100 μL) from individual rats were analyzed for radioactivity concentrations. Radioactivity determinations were made with a Tri-Carb Model 3100 TR liquid scintillation counter (LSC) (Perkin Elmer) using 5 mL of Ultima Gold as the scintillation fluid.
Brain and fecal samples from individual rats were weighed and homogenized in water at a volume-to-weight ratio of about 3:1 and 5:1, respectively, with a Polytron PT homogenizer at ice-cold temperature. Duplicate aliquots of blood (50 μL), brain homogenates (0.2 g) and fecal homogenates (0.2 g) were placed on Combusto-cones with Combusto-pads and allowed to dry overnight. Samples were combusted with a model 307 Tri-Carb Sample Oxidizer, equipped with an Oximate-80 Robotic Automatic Sampler (Perkin Elmer). The liberated ^14CO2 was trapped with Carbo-Sorb E carbon dioxide absorber, mixed with PermaFluor® E^+ liquid scintillation cocktail, and counted in a Tri-Carb Model 3100 TR/LL liquid scintillation counter (Perkin Elmer).
Plasma samples were pooled by equal volumes from three animals at each time point (1, 3, 6 and 24 hr for males; 1 and 3 hr for females). Aliquots of 2 mL of pooled plasma were mixed with 2 mL of acetonitrile, placed on ice for about 10 min, and then centrifuged at 4° C. The supernatant was transferred to a clean tube. The protein pellets were extracted two more times with 4 mL of acetonitrile. The supernatants from precipitation and extraction of each sample were pooled, mixed, and evaporated at 22° C. under nitrogen in a TurboVap LV evaporator (Caliper Life Sciences, Hopkinton, Mass.) to about 1.0 mL. The concentrated extract was centrifuged, the supernatant volume measured and the extraction efficiency was determined by analyzing duplicate 10 μL aliquots for radioactivity concentrations.

[1] = female, Sprague-Dawley, rat, brain and plasma, po, 5 mg/kg, read-out: Brain/Plasma COMPOUND I Ratio
[2] = male, Sprague-Dawley, rat, brain and plasma, po, 5 mg/kg, read-out: Brain/Plasma COMPOUND I Ratio

## COc1cc(N2CCN(C3CCN(c4ccc(F)c5cccnc45)CC3)CC2)c2ncccc2c1 [COMPOUND I, 5-Fluoro-8-{4-[4-(6-methoxyquinolin-8-yl)piperazin-1-yl]piperidin-1-yl}quinoline]
Sprague-Dawley, rat, brain and plasma, rats, 5 mg/kg oral, read-out: brain-to-plasma ratios of COMPOUND I concentrations
  Kp: 0.47 to 0.85
Sprague-Dawley, rat, female rats, 1 hr, 5 mg/kg oral, mean brain radioactivity x percentage of COMPOUND I in pooled sample, read-out: Brain COMPOUND I Concentrations
  concentration at 1 hr: 106 ng/g
Sprague-Dawley, rat, female rats, 3 hr, 5 mg/kg oral, mean brain radioactivity x percentage of COMPOUND I in pooled sample, read-out: Brain COMPOUND I Concentrations
  concentration at 3 hr: 34.7 ng/g
Sprague-Dawley, rat, male rats, 1 hr, 5 mg/kg oral, mean brain radioactivity x percentage of COMPOUND I in pooled sample, read-out: Brain COMPOUND I Concentrations
  concentration at 1 hr: 40.9 ng/g
Sprague-Dawley, rat, male rats, 3 hr, 5 mg/kg oral, mean brain radioactivity x percentage of COMPOUND I in pooled sample, read-out: Brain COMPOUND I Concentrations
  concentration at 3 hr: 15.9 ng/g
Sprague-Dawley, rat, male rats, 6 hr, 5 mg/kg oral, mean brain radioactivity x percentage of COMPOUND I in pooled sample, read-out: Brain COMPOUND I Concentrations
  concentration at 6 hr: 10 ng/g
Female rats, 1 hr
  Chromatographic Distribution of Radioactivity in Pooled Plasma Samples: 16.4%
Female rats, 1 hr, 5 mg/kg oral
  percent of total brain radioactivity: 79.5%
Female rats, 3 hr
  Chromatographic Distribution of Radioactivity in Pooled Plasma Samples: 14.6%
Female rats, 3 hr, 5 mg/kg oral
  percent of total brain radioactivity: 70.7%
[1]
  Kp at 1 h: 0.77
  Kp at 3 h: 0.58
Male rats, 1 hr
  Chromatographic Distribution of Radioactivity in Pooled Plasma Samples: 16.9%
Male rats, 1 hr, 5 mg/kg oral
  percent of total brain radioactivity: 80.3%
Male rats, 3 hr
  Chromatographic Distribution of Radioactivity in Pooled Plasma Samples: 15.5%
Male rats, 3 hr, 5 mg/kg oral
  percent of total brain radioactivity: 63.8%
Male rats, 6 hr
  Chromatographic Distribution of Radioactivity in Pooled Plasma Samples: 8.7%
Male rats, 6 hr, 5 mg/kg oral
  percent of total brain radioactivity: 60.5%
Male rats, from 1 to 6 hr post-dose, 5 mg/kg oral
  percent of total plasma radioactivity: 8.7-16.9%
Male rats, pooled 0-24 hr feces, 5 mg/kg oral
  percent of total radioactivity in the fecal extract: 8.1%
[2]
  Kp at 1 h: 0.47
  Kp at 3 h: 0.54
  Kp at 6 h: 0.85
rats, 5 mg/kg oral, P, plasma, F, feces, B, brain
  Source: P, B, F
